Like-named read-outs stand apart in the source and are kept apart here.
Experiments:
lectins or antibodies = biological target: T1, lectins or antibodies (Lens culinaris, UniProt P02870); assay: Direct binding on glycan microarray, lectin or antibody not named; settings: binding protein not given
T1 construct: purchased Sigma
T1 sequence (P02870 31-210 limits assumed): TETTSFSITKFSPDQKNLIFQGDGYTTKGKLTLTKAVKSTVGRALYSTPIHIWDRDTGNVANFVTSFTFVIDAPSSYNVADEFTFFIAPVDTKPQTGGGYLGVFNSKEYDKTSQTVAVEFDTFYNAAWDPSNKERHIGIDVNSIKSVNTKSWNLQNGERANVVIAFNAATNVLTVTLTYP
T1 sequence (P02870 218-269 limits assumed): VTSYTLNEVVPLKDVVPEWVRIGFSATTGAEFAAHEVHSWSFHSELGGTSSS
Text: Prior studies of carbohydrate-protein interactions have used a threshold-based, one-step qualitative analysis i.e. interaction or non-interaction. The threshold varies from one carbohydrate to another and is based on how well the carbohydrate behaves in the assay. Even when closely related glycans are studied under ideal conditions, they vary with respect to the surface density of active carbohydrates. Since the intensity of a spot depends both on KD,surf (which results from binding affinity), and Fmax (which results from surface active carbohydrate density and protein binding), the information obtained by probing an array with a single concentration of analytes may not be accurate.

Con A [1] = biological target: T2, Con A (Canavalia ensiformis, UniProt P02866); assay: Competitive binding assay on glycan microarray (solution KD / Ki)
T2 construct: purchased Sigma
Text: The solution equilibrium dissociation constant (KD) for carbohydrate-lectin interactions can be determined using microarrays in a competitive assay. […] In a competitive binding experiment, carbohydrates in solution compete with immobilized carbohydrate ligands for the binding sites on the lectin, establishing a coupled equilibrium between the binding of protein to the immobilized species and to the species present in solution. Using array imaging signals, the unbound protein concentration [P] can be obtained via Langmuir isotherms (eq 1). Once the concentration of P has been measured, it is possible to determine the KD using eq 2, which is derived from the multivalent Scatchard formula (see the Experimental Section for the derivation of eq 2)
where [Lo] is ligand (carbohydrate) concentration applied to the system, and KD is the solution equilibrium dissociation constant. […] Binding curves, representing different concentrations of competitors were obtained as the function of FITC-Con A concentrations and fluorescence intensities from the Man8 surface (FIG. 4a). The data was analyzed according to eq 2, to afford apparent KD values, which were then replotted against competitor concentration to afford the solution KD values (FIG. 4b). […]
ArrayVision 8.0 (Applied Precision) was used for the fluorescence analysis and extraction of data. […]

Con A [2] = biological target: T2, Con A; settings: obtained by microcalorimetry; cited from earlier work
Con A [3] = biological target: T2, Con A; settings: obtained by SPR; cited from earlier work

Man9
Fmax (maximal fluorescence intensity) (lectins or antibodies): 25780 | Kd (lectins or antibodies; read-out: KD (dissociation constant, surface)): 0.335 µM | fold stronger than Man1 in binding to Con A (Con A [1]; from solution KD values): more than 10^3 fold

COC1OC(CO)C(O)C(O)C1O (stereo not drawn) [a-MeMan, α-methyl mannose]
Ki (Con A [2]): 120 µM | Ki (Con A [3]): 92 µM | relative affinity KD (a-MeGlc)/KD (a-MeMan) (Con A [1]; inhibitors in solution, Con A): 4.3

COC1OC(CO)C(O)C(O)C1O (stereo not drawn) [a-MeGlc, α-methyl glucose]
Ki (Con A [2]): 520 µM

Source: patent US8906832B2, “Quantitative analysis of carbohydrate-protein interactions using glycan microarrays: determination of surface and solution dissociation constants” (Academia Sinica, priority 2008, dated 2014)
